For the assay, the target named is T1, OfurPBP2 (Ostrinia furnacalis pheromone binding protein 2) (Ostrinia furnacalis, UniProt E7CCA0).
T1 construct: gene PBP2; full-length OfurPBP2, recombinant soluble (E. coli Origami 2), delipidated, pH 6.5
T1 sequence (E7CCA0 23-166): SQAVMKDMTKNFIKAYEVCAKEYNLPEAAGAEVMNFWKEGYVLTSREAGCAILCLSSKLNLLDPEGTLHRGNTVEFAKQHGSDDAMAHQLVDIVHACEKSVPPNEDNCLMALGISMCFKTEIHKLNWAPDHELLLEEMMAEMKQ
Nature of the assay: fluorescence titration of the NPN probe (emission at […] nm), single-site fit.

The term Kd denotes the concentration at which binding is half-saturated. Read a low Kd as higher affinity. In turn, `c1ccc(Nc2cccc3ccccc23)cc1` [N-phenyl-1-naphthylamine] had a Kd of 6.49 ± 1.01 µM.

Source of the values: paper PMC6244159, “Structure and Function Studies of Asian Corn Borer Ostrinia furnacalis Pheromone Binding Protein2” (Scientific Reports, 2018).
